≈ marks a conversion by molar mass, not a printed value. Where two headings read alike, the source gives them in different places.
Key:
[1] = system: Pseudomonas aeruginosa ATCC 27853; experiment: Evaluation test for disinfecting effect, broth dilution method CLSI(M7-A7)2006; format: cell-based; details: 37°C, 18 hours
Source text: (§1) The following test compounds were examined for the disinfecting activities against Pseudomonas aeruginosa, E.. Coli and staphylococcus aureus, according to a broth dilution method of "CLSI(M7-A7)2006" (Clinical and Laboratory Standards Institute, M7-A7, Methods for Dilution Antimicrobial Susceptibility Tests for Bacteria That Grow Aerobically; Approved Standard-Seventh Edition, 2006),
(§2) • Pseudomonas aeruginosa PAO1 • Pseudomonas aeruginosa ATCC 27853 • Escherichia coli ATCC 25922 • Staphylococcus aureus ATCC 29213 • Staphylococcus aureus Methicillin resistant (MRSA) ATCC 43300
(§3) Each of above-mentioned bacteria was inoculated in a TSB culture medium (Bacto TSB Broth, product of BD) for overnight cultivation at 37°C. The culture solution was applied to a TSB agar plate for about a 20-hour cultivation to form colonies. Three to five colonies were taken from the agar plate, and an average colony of them was inoculated in a 4mL TSB culture medium.. The colony was cultivated at 35°C until the number of microorganisms became 1 × 10^8 to 2 x 10^8 CFU/mL. The number of microorganisms with time was found by measuring changes in absorbency at 590nm of culture solution with time. When the turbidity became equivalent to 0.5 McFarland standard, it was determined that the number of microorganisms reached the target level = 1 × 10^8 to 2 × 10^8 CFU/mL.
(§4) The bacillus culture solution thus obtained was diluted 10-fold within 15 minutes, and a 5µL portion was inoculated in each well of an evaluation 96-well microplate. This 96-well microplate was a sterilized 96-well microplate with U-shaped bottoms (Falcon 35-3918: product of BD), and each well was filled with a 100µL portion of MH culture medium (BBL MH Broth: product of BD). Within 15 minutes after inoculation of the bacillus culture solutions, the test compounds were supplied to the well in a manner of 2-fold graded dilution. The cultivation was then carried out at 37°C for 18 hours.
(§5) The MIC was determined as follows. "S (susceptible)" indicates a concentration which caused 80% or more reduction in the diameter of the aggregation deposited in the bottom of the well, compared to when the test liquid is not used. "R (Resistant)" indicates a concentration that caused less than 80% reduction in diameter. The reduction was measured visually.. "I(Intermediate)" indicates a concentration that cannot be measured visually

[2] = system: Escherichia coli ATCC 25922; experiment: as above; format: cell-based; details: 37°C, 18 hours
Source text: as §1, §2, §3, §4, §5

[3] = system: Pseudomonas aeruginosa PAO1; experiment: as above; format: cell-based; details: 37°C, 18 hours
Source text: as §1, §2, §3, §4, §5

[4] = system: Staphylococcus aureus Methicillin resistant (MRSA) ATCC 43300; experiment: as above; format: cell-based; details: 37°C, 18 hours
Source text: as §1, §2, §3, §4, §5

[5] = system: Staphylococcus aureus ATCC 29213; experiment: as above; format: cell-based; details: 37°C, 18 hours
Source text: as §1, §2, §3, §4, §5

[6] = system: Staphylococcus aureus ATCC 29213; details: Publicly-known data, CLSI(M100-S16)2006 liquid dilution method; cited from earlier work
[7] = system: Porphyromonas gingivalis 381-strain (clinical strain); experiment: Evaluation test for biofilm formation inhibition effect against periodontitis pathogenic bacteria (flow cell system, HA disks, turbidity); format: cell-based; details: for Mean OD Value: turbidity at 550 nm of biofilm peeled off HA disks; for inhibition at 100 µM: Porphyromonas gingivalis, 336 h, read-out: Biofilm Formation Inhibition Rate(%)
Method: As with Experiment Example 1, using the flow cell system of FIG. 1, an inhibitory effect against biofilm formation by periodontitis pathogenic bacteria was evaluated for each of the amide compounds produced in Production Examples 1, 3, 5, and 6 (Compounds 1a-1, 1b-1, 1c-1, 1c-2).
Periodontitis pathogenic bacteria Porphyromonas gingivalis 381-strain (clinical strain) was used..
A GAM culture medium containing hemin 5µg/L and menadione 1µg/L was used.
The 381-strain was inoculated in the GAM culture medium, and cultivated until stationary phase (OD550=1.8). Then the culture medium was diluted 20-fold by a fresh GAM culture medium containing the above-mentioned substances.
The test liquid was prepared by dissolving 100µM of each of the Compounds 1a-1, 1b-1, 1c-1, or 1c-2 according to Production Examples 1, 3, 5 and 6 and 100µM of Comparative Compounds 1 and 2 as comparative examples in dimethyl sulfoxide (DMSO), and supplying the resulting DMSO solutions to the above-mentioned bacterial suspensions so that the concentration of each compound becomes 0.1%(v/v).
A DMSO not containing the compound was used as a control test liquid.
The glass cell (4) of the flow cell system (see FIG. 1) was replaced with a stainless cell (3 x 7 x 120mm), and 10 hydroxyapatite (HA) disks (6mm in diameter, 1mm in thickness) were placed in the cell. The HA disks had been subjected to salivary treatment overnight. Each of the test liquids and control test liquids was circulated in the system at a flow rate of 8mL/min for 14 days, Note that the test liquids and the control test liquids were replaced with fresh liquids every two days.
After the cultivation, the HA disks were dipped in 300µL of sterile distilled water, and treated by supersonic wave for 30 minutes at 4°C, The biofilms formed in the HA disks were peeled off and suspended in distilled water. Then, 100µL of the suspension liquid was measured for the turbidity with an absorptiometer (C07500 colorimeter, product of Funakoshi) (measurement wavelength = 550 nm).
A mean OD was found based on the resulting OD values, excluding the minimum and maximum values, Also, a mean value of the turbidities for the Control Test Liquids was found in the same manner as the control mean OD value. A biofilm formation inhibition rate (Inhibition Rate) was found by the following formula. Biofilm Formation Inhibition Rate (%) = […] [formula]

[8] = ATCC27853, I (Intermediate): concentration that cannot be measured visually, read-out: MIC (µg/mL) I
[9] = ATCC27853, R (Resistant): concentration that caused less than 80% reduction in diameter of the aggregation, read-out: MIC (µg/mL) R
[10] = ATCC27853, S (susceptible): concentration which caused 80% or more reduction in diameter of the aggregation, read-out: MIC (µg/mL) S
[11] = ATCC25922, I (Intermediate): concentration that cannot be measured visually, read-out: MIC (µg/mL) I
[12] = ATCC25922, R (Resistant): concentration that caused less than 80% reduction in diameter of the aggregation, read-out: MIC (µg/mL) R
[13] = ATCC25922, S (susceptible): concentration which caused 80% or more reduction in diameter of the aggregation, read-out: MIC (µg/mL) S
[14] = PAO1, R (Resistant): concentration that caused less than 80% reduction in diameter of the aggregation, read-out: MIC (µg/mL) R
[15] = PAO1, S (susceptible): concentration which caused 80% or more reduction in diameter of the aggregation, read-out: MIC (µg/mL) S
[16] = R (Resistant): concentration that caused less than 80% reduction in diameter of the aggregation, read-out: MIC (µg/mL) R
[17] = ATCC29213, R (Resistant): concentration that caused less than 80% reduction in diameter of the aggregation, read-out: MIC (µg/mL) R
[18] = ATCC29213, S (susceptible): concentration which caused 80% or more reduction in diameter of the aggregation, read-out: MIC (µg/mL) S

Row | SMILES | MIC [1, 8] [µg/mL] | MIC [1, 9] [µg/mL] | MIC [1, 10] [µg/mL] | MIC [2, 11] [µg/mL] | MIC [2, 12] [µg/mL] | MIC [2, 13] [µg/mL] | MIC [3, 14] [µg/mL] | MIC [3, 15] [µg/mL] | MIC [4, 16] [µg/mL] | MIC [5, 17] [µg/mL] | MIC [5, 18] [µg/mL] | Mean OD Value ([7]; 100µM, 14 days) | inhibition at 100 µM [7] [%] | also measured
1 | CC[C@H]1OC(=O)[C@H](C)[C@@H](O[C@H]2C[C@@](C)(OC)[C@@H](O)[C@H](C)O2)[C@H](C)[C@@H](O[C@@H]2O[C@H](C)C[C@H](N(C)C)[C@H]2O)[C@](C)(O)C[C@@H](C)CN(C)[C@H](C)[C@@H](O)[C@]1(C)O [AZM, Azithromycin] | 64 (≈ 85.4 µM) | ≤ 32 | ≥ 128 | 4 (≈ 5.34 µM) | ≤ 2 | ≥ 8 | ≤ 32 | ≥ 128 | ≤ 1020 | ≤ 0.5 | ≥ 2 | – | – | MIC ([3]; PAO1, I (Intermediate): concentration that cannot be measured visually, read-out: MIC (µg/mL) I): 64 µg/mL (≈ 85.4 µM); MIC ([5]; ATCC29213, I (Intermediate): concentration that cannot be measured visually, read-out: MIC (µg/mL) I): 1 µg/mL (≈ 1.34 µM); MIC (µg/mL) from M100-S16 [6]: 0.5 to 2 µg/mL
2 | CC1(C)S[C@@H]2[C@H](NC(=O)C(C(=O)O)c3ccccc3)C(=O)N2[C@H]1C(=O)O (stereo partly drawn) [CBPC, Carbenicillin] | 128 (≈ 338 µM) | ≤ 64 | ≥ 256 | 16 (≈ 42.3 µM) | ≤ 8 | ≥ 32 | ≤ 64 | ≥ 128 | ≤ 16 | ≤ 8 | ≥ 16 | – | – | MIC ([4]; I (Intermediate): concentration that cannot be measured visually, read-out: MIC (µg/mL) I): 32 µg/mL (≈ 84.6 µM); MIC ([4]; S (susceptible): concentration which caused 80% or more reduction in diameter of the aggregation, read-out: MIC (µg/mL) S): ≥ 64 µg/mL
3 | CCCCCCCCCCCC(=O)NC1CCNC1 (stereo not drawn) [Compound 1a-1, N-(pyrrolidin-3-yl) dodecanoyl amide] | – | – | – | – | – | – | – | – | – | – | – | 0.49 | 37.4 | –
4 | CCCCCCCCCCCC(=O)NC1CCNCC1 [Compound 1b-1, N-(piperidin-4-yl) dodecanoyl amide] | – | – | – | – | – | – | – | – | – | – | – | 0.32 | 19.1 | –
5 | CCCCCCCCCCCC(=O)NN1CCCC1 [Compound 1c-1, N-(pyrrolidin-1-yl) dodecanoyl amide] | – | – | – | – | – | – | – | – | – | – | – | 0.522 | – | inhibition at 100 µM ([7]; 100µM, 14 days, relative to control test liquid (Mean Comparison OD Value)): 11%
